Source: patent US7517857B2, “Immune-modulating peptide” (POSCO, priority 2002, dated 2009)
Where a SMILES comes first, the peptide text is derived from it. Where no end group is shown, it is not given here. [ ]: non-standard residue; d: D form.

Tests used:
Assay type in all cases: cell-based
[1] = molecular target: T1, FPR (Homo sapiens, UniProt P21462); experiment: Exocytosis: β-hexosaminidase secretion in FPR-expressing RBL-2H3 cells; conditions: for granule secretion / β-hexosaminidase release (words): FPR cells, 10 μM of each peptide (WKYMVm also various concentrations)
T1 construct: expressed in transfected cells; host or cells: RBL-2H3 (rat basophilic leukemia) cells, G418-selected
T1 sequence (P21462 1-350): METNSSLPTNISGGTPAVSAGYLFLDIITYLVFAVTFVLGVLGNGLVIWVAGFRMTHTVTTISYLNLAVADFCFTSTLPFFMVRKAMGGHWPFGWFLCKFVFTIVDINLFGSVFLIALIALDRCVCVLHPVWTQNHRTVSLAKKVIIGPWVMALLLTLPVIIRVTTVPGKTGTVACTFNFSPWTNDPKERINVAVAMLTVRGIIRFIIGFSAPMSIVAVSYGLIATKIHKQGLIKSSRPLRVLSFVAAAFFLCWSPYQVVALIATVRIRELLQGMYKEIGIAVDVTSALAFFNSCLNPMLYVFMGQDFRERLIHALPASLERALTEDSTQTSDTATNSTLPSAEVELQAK
Description: Granule secretion is one of the most important function of mast cells (20). The effect of WKYMVm on granule secretion was checked by measuring β-hexosaminidase secretion as described above (18). Briefly, RBL-2H3 cells (2×10^5/well) expressing FPR or FPRL1 were cultured overnight in a 24-well tissue culture plate. The cells were washed twice with Tyrode's buffer (137 mM NaCl, 12 mM NaHCO3, 5.6 mM glucose, 2.7 mM KCl, 1 mM CaCl2, 0.5 mM MgCl2, 0.4 mM NaH2PO4, 0.1g/100 ml BSA, and 25 mM HEPES, pH 7.4) and stimulated with each peptide. Various concentrations of WKYMVm were treated in FPR- or FPRL1-expressing RBL-2H3 cells (FIG. 5A). 1 μM of WKYMVm was used to stimulate two cell lines in the absence or presence of 10 μM BAPTA/AM (FIG. 5B). The reaction was terminated 20 min after stimulation by placing the plate on ice. Secretion of β-hexosaminidase into the medium was determined by incubating 50 μl of supernatant or cell lysate with 25 μl of 5 mM p-nitrophenyl-N-acetyl-β-D-glucosamide in 0.1 M sodium citrate buffer (pH 3.8) at 37° C. for 2 hr. At the end of the incubation, 50 μl of 0.4 M Na2CO3 were added. Absorbance was monitored at 405 nm. Data are means ±S.E. of a single representative of three experiments performed in triplicate. Values (means ±S.E.) were expressed as a percent of total β-hexosaminidase present in the cells.
From the new finding that cytosolic calcium release was induced by WKYMVm and many of the substituted peptides of WKYMVm but not by some of them (WKGMVm (SEQ ID NO: 1), WKRMVm (SEQ ID NO: 11), D-Met^6 substituted peptides), the effect of the peptides on granule secretion in RBL cells was checked. 10 μM of each peptide was treated in FPR- (FIG. 6A) or FPRL1-expressing RBL-2H3 cells (FIG. 6B). The peptide-induced secretion of β-hexosaminidase was determined as above. Data are means ±S.E. of a single representative of three experiments performed in triplicate.

[2] = molecular target: T1, FPR; experiment: Chemotaxis of FPR-expressing RBL-2H3 cells (modified Boyden chamber); conditions: FPR-expressing RBL-2H3 cells; various concentrations
Description: (§1) Chemotaxis assays were performed using multiwell chambers (modified Boyden chamber assay) (Neuroprobe Inc., Gaithersburg, Md.) (18). Briefly, polycarbonate filters (8 μm pore size) were precoated with 50 μg/ml of rat type I collagen (Collaborative Biomedicals) in a HEPES-buffered RPMI 1640 medium. A dry coated filter was placed on a 96-well chamber containing different concentrations of peptides. RBL-2H3 cells expressing FPR or FPRL1 were suspended in RPMI at a concentration of 1×10^6 cells/ml of serum-free RPMI, and 25 μl of the suspension were placed onto the upper well of the 96-well chemotaxis chamber. After incubation for 4 hours at 37° C., non-migrated cells were removed by scraping them out, and cells that migrated across the filter were dehydrated, fixed, and stained with hematoxylin (Sigma, St. Louis, Mo.). The stained cells in five randomly chosen high power fields (HPF) (400×) in that well were then counted. […] The numbers of migrated cells were determined by counting them in a high power field (400×). The Data are presented as means ±SE of three independent experiments each performed in duplicate. The effect of the peptides of the present invention on cellular chemotaxis in FPR- or FPRL1-expressing RBL-2H3 cells was measured. Various concentrations of each peptide were used for the chemotaxis assay with FPR- or FPRL1-expressing RBL-2H3 cells. The numbers of migrated cells were determined by counting them in a high power field (400×). The Data are presented as means ±SE of two independent experiments each performed in duplicates.

[3] = molecular target: T2, FPRL1 (Homo sapiens, UniProt P25090); experiment: Chemotaxis of FPRL1-expressing RBL-2H3 cells (modified Boyden chamber); conditions: FPRL1-expressing RBL-2H3 cells; various concentrations
T2 construct: expressed in transfected cells; host or cells: RBL-2H3 (rat basophilic leukemia) cells, G418-selected
T2 sequence (P25090 1-351): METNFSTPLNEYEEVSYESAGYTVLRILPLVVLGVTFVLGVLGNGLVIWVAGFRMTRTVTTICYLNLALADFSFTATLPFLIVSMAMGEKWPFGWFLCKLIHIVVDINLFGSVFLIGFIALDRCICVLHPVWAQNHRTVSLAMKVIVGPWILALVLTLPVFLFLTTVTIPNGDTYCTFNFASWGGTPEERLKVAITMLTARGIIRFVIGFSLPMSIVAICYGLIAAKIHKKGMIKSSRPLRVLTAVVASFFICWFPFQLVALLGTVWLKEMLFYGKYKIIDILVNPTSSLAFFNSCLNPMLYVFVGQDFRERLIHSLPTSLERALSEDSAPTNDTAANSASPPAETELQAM
Description: as §1

With `CSCC[C@H](NC(=O)CNC(=O)[C@H](CCCCN)NC(=O)[C@@H](N)Cc1c[nH]c2ccccc12)C(=O)N[C@H](C(=O)N[C@H](CCSC)C(N)=O)C(C)C` [WKGMVm-NH2, Trp-Lys-Gly-Met-Val-D-Met-NH2] (H-WKGMV[dM]-NH2; N-terminus assumed) the “granule secretion / β-hexosaminidase release (words)” value [1] was “could not effect granule secretion”, the “cellular chemotaxis” value [2] was “induced cellular chemotaxis” and the “cellular chemotaxis” value [3] was “induced cellular chemotaxis showing concentration-dependency”.
With `CSCC[C@H](NC(=O)[C@H](Cc1ccc(O)cc1)NC(=O)[C@H](CCCCN)NC(=O)[C@@H](N)Cc1c[nH]c2ccccc12)C(=O)N[C@H](C(=O)N[C@H](CCSC)C(N)=O)C(C)C` [WKYMVm-NH2, Trp-Lys-Tyr-Met-Val-D-Met-NH2, reference compound] the “granule secretion / β-hexosaminidase release (words)” value [1] was “caused β-hexosaminidase release in a concentration-dependent manner”, the “concentration showing maximal β-hexosaminidase release” value ([1]; FPR-expressing RBL-2H3 cells) was 100 nM and the “cellular chemotaxis” value [2] was “induced cellular chemotaxis”. For the same molecule, the “cellular chemotaxis” value [3] was “induced cellular chemotaxis showing concentration-dependency”.
“WKYMVE-NH2 [WKYMVE-NH2, Trp-Lys-Tyr-Met-Val-Glu-NH2]” was tested, and the “cellular chemotaxis” value [2] was “induced cellular chemotaxis” and the “cellular chemotaxis” value [3] was “induced cellular chemotaxis showing concentration-dependency”.
In the case of `CSCC[C@H](NC(=O)[C@H](CCCNC(=N)N)NC(=O)[C@H](CCCCN)NC(=O)[C@@H](N)Cc1c[nH]c2ccccc12)C(=O)N[C@H](C(=O)N[C@H](CCSC)C(N)=O)C(C)C` [WKRMVm-NH2, Trp-Lys-Arg-Met-Val-D-Met-NH2] (H-WKRMV[dM]-NH2; N-terminus assumed), the “granule secretion / β-hexosaminidase release (words)” value [1] is reported as “could not effect granule secretion”, the “cellular chemotaxis” value [2] is reported as “induced cellular chemotaxis” and the “cellular chemotaxis” value [3] is reported as “induced cellular chemotaxis showing concentration-dependency”.
In the case of “WKYMVR-NH2 [WKYMVR-NH2, Trp-Lys-Tyr-Met-Val-Arg-NH2]”, the “cellular chemotaxis” value [2] is reported as “induced cellular chemotaxis” and the “cellular chemotaxis” value [3] is reported as “induced cellular chemotaxis showing concentration-dependency”.
